Test results published in patent publication US8263606B2 (Xenon Pharmaceuticals Inc., priority 2008, dated 2012).

What was measured:
sodium channel = assay: Guanidine influx assay (14C-guanidine radiotracer flux, in vitro); assay type: cell-based, human or rat; conditions: guanidine influx assay using a known cell line that expresses a sodium channel; activity level class
Summary of the method: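 Human or rat sodium channels stably expressed in endogenous or recombinant cells, plated ~100,000 cells/well for 20-24 h at 37 °C. Cells were treated with test agent in low-sodium choline HEPES saline plus aconitine and 14C-guanidine at ambient temperature, washed, and counted by scintillation; IC50 from 4-parameter logistic fit.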

CYP3A4 = CYP3A4 (Homo sapiens, UniProt P08684); assay: Cytochrome P450 (CYP450) Inhibition Assay, CYP3A4 (Vivid fluorescence, BOMCC substrate); conditions: human, P450 Baculosomes (recombinant CYP3A4), probe BOMCC (Vivid substrate)
CYP3A4, sequence (P08684 whole entry): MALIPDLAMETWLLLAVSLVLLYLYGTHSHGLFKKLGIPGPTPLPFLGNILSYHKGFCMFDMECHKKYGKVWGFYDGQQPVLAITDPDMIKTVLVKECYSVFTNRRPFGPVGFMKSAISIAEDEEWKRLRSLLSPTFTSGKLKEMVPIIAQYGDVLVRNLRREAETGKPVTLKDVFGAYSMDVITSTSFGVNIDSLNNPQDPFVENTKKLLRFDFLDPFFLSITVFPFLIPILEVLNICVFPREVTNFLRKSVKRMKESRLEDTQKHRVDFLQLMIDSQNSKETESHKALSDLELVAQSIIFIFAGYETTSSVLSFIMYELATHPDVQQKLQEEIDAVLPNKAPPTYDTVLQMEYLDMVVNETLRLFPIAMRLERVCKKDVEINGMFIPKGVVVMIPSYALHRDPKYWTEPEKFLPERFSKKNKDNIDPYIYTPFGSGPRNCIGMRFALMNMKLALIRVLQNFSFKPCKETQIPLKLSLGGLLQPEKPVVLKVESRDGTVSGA

IC50 (sodium channel) [nM] | melting point [°C] | inhibition at 10 µM (CYP3A4) [%] | Structure (SMILES)
100 to 1000 | 160 to 162 | < 50 | COc1cc2c(cc1F)C1(CO2)C(=O)N(Cc2ccccc2)c2ccccc21 (stereo not drawn) [Example 4.67, 1′-benzyl-5-fluoro-6-methoxyspiro[1-benzofuran-3,3′-indol]-2′(1′H)-one]
1000 to 10000 | 121 to 130 | > 50 | O=C1CC[C@@H](CN2C(=O)C3(COc4cc5c(cc43)OCO5)c3ccccc32)N1 (stereo partly drawn) [Example 4.72, 1′-{[(2S)-5-oxopyrrolidin-2-yl]methyl}spiro[furo[2,3-f][1,3]benzodioxole-7,3′-indol]-2′(1′H)-one]
1 to 100 | 170 to 172 | > 50 | N#CCN1C(=O)C2(COc3cc4c(cc32)OCO4)c2ccccc21 (stereo not drawn) [Example 4.73, (2′-oxospiro[furo[2,3-f][1,3]benzodioxole-7,3′-indol]-1′(2′H)-yl)acetonitrile]
100 to 1000 | 95 to 98 | > 50 | O=C1N(Cc2ccc(C(F)(F)F)o2)c2c(C(F)(F)F)cccc2C12COc1cc3c(cc12)OCO3 (stereo not drawn) [Example 4.74, 7′-(trifluoromethyl)-1′-{[5-(trifluoromethyl)-2-furyl]methyl}spiro[furo[2,3-f][1,3]benzodioxole-7,3′-indol]-2′(1′H)-one]
100 to 1000 | 165 to 166 | > 50 | O=C1N(Cc2ccc(Cl)s2)c2c(C(F)(F)F)cccc2C12COc1cc3c(cc12)OCO3 (stereo not drawn) [Example 4.75, 1-[(5-chloro-2-thienyl)methyl]-7′-(trifluoromethyl)spiro[furo[2,3-f][1,3]benzodioxole-7,3′-indol]-2′(1′H)-one]
100 to 1000 | 101 to 103 | > 50 | CC(C)c1ncc(CN2C(=O)C3(COc4cc5c(cc43)OCO5)c3cccc(C(F)(F)F)c32)s1 (stereo not drawn) [Example 4.76, 1′-[(2-isopropyl-1,3-thiazol-5-yl)methyl]-7′-(trifluoromethyl)spiro[furo[2,3-f][1,3]benzodioxole-7,3′-indol]-2′(1′H)-one]
1 to 100 | 75 to 77 | > 50 | CC(C)c1ncc(CN2C(=O)C3(COc4cc5c(cc43)OCO5)c3ccccc32)o1 (stereo not drawn) [Example 4.77, 1′-[(2-isopropyl-1,3-oxazol-5-yl)methyl]spiro[furo[2,3-f][1,3]benzodioxole-7,3′-indol]-2′(1′H)-one]
1 to 100 | 128 to 130 | > 50 | CSc1ccc(CN2C(=O)C3(COc4cc5c(cc43)OCO5)c3ccccc32)cc1 (stereo not drawn) [Example 4.79, 1′-[4-(methylsulfanyl)benzyl]spiro[furo[2,3-f][1,3]benzodioxole-7,3′-indol]-2′(1′H)-one]
1 to 100 | 200 to 202 | > 50 | N#CCCN1C(=O)C2(COc3cc4c(cc32)OCO4)c2ccccc21 (stereo not drawn) [Example 4.80, 3-(2′-oxospiro[furo[2,3-f][1,3]benzodioxole-7,3′-indol]-1′(2′H)-yl)propanenitrile]
1 to 100 | 215 to 217 | > 50 | O=C1N(Cc2cnc(Br)s2)c2ccccc2C12COc1cc3c(cc12)OCO3 (stereo not drawn) [Example 4.81, 1′-[(2-bromo-1,3-thiazol-5-yl)methyl]spiro[furo[2,3-f][1,3]benzodioxole-7,3′-indol]-2′(1′H)-one]
100 to 1000 | 165 to 167 | > 50 | Nc1nc(C(F)(F)F)c(CN2C(=O)C3(COc4cc5c(cc43)OCO5)c3ccccc32)s1 (stereo not drawn) [Example 4.82, 1′-{[2-amino-4-(trifluoromethyl)-1,3-thiazol-5-yl]methyl}spiro[furo[2,3-f][1,3]benzodioxole-7,3′-indol]-2′(1′H)-one]
1000 to 10000 | 132 to 134 | > 50 | COc1cc2c(cc1F)OCC21C(=O)N(Cc2ccc(C(F)(F)F)o2)c2ccccc21 (stereo not drawn) [Example 4.83, 6-fluoro-5-methoxy-1′-{[5-(trifluoromethyl)furan-2-yl]methyl}spiro[1-benzofuran-3,3′-indol]-2′(1′H)-one]
100 to 1000 | 122 to 123 | < 50 | N#CCN1C(=O)C2(COc3cc4c(cc32)OCO4)c2c(Cl)cccc21 (stereo not drawn) [Example 4.84]
100 to 1000 | 230 to 235 | > 50 | Nc1nc(CN2C(=O)C3(COc4cc5c(cc43)OCO5)c3ccccc32)cs1 (stereo not drawn) [Example 4.85, 1′-[(2-amino-1,3-thiazol-4-yl)methyl]spiro[furo[2,3-f][1,3]benzodioxole-7,3′-indol]-2′(1′H)-one]
1 to 100 | 85 to 87 | > 50 | O=C1N(Cc2ccc(Cl)s2)c2cccc(Br)c2C12COc1cc3c(cc12)OCO3 (stereo not drawn) [Example 4.86, 4′-bromo-1′-[1(5-chloro-2-thienyl)methyl]spiro[furo[2,3-f][1,3]benzodioxole-7,3′-indol]-2′(1′H)-one]
1 to 100 | 192 to 193 | > 50 | N#Cc1cccc2c1N(Cc1ccc(Cl)s1)C(=O)C21COc2cc3c(cc21)OCO3 (stereo not drawn) [Example 4.87, 1′-[(5-chloro-2-thienyl)methyl]-2′-oxo-1′,2′-dihydrospiro[furo[2,3-f][1,3]benzodioxole-7,3′-indole]-7′-carbonitrile]
1 to 100 | 162 to 163 | > 50 | CC(C)c1nc(CN2C(=O)C3(COc4cc5c(cc43)OCO5)c3cccc(C#N)c32)cs1 (stereo not drawn) [Example 4.88, 1′-[(2-isopropyl-1,3-thiazol-4-yl)methyl]-2′-oxo-1′,2′-dihydrospiro[furo[2,3-f][1,3]benzodioxole-7,3′-indole]-7′-carbonitrile]
1 to 100 | 167 to 168 | > 50 | O=C1N(Cc2ccc(Cl)s2)c2cccc(Cl)c2C12COc1cc3c(cc12)OCO3 (stereo not drawn) [Example 4.89, 4′-chloro-1′-[(5-chloro-2-thienyl)methyl]spiro[furo[2,3-f][1,3]benzodioxole-7,3′-indol]-2′(1′H)-one]
1 to 100 | 147 to 148 | > 50 | CC(C)c1nc(CN2C(=O)C3(COc4cc5c(cc43)OCO5)c3c(Cl)cccc32)cs1 (stereo not drawn) [Example 4.91, 4′-chloro-1′-[(2-isopropyl-1,3-thiazol-4-yl)methyl]spiro[furo[2,3-f][1,3]benzodioxole-7,3′-indol]-2′(1′H)-one]
100 to 1000 | 164 to 165 | > 50 | CC(C)c1nc(CN2C(=O)C3(COc4cc5c(cc43)OCO5)c3c(-c4ccc(N(C)C)nc4)cccc32)cs1 (stereo not drawn) [Example 4.92, 4′-[6-(dimethylamino)pyridin-3-yl]-1′-{[2-(1-methylethyl)-1,3-thiazol-4-yl]methyl}spiro[furo[2,3-f][1,3]benzodioxole-7,3′-indol]-2′(1′H)-one]
1 to 100 | 188 to 190 | > 50 | O=C1N(Cc2ccccc2CF)c2ccccc2C12COc1cc3c(cc12)OCCO3 (stereo not drawn) [Example 4.93]
1 to 100 | 173 to 178 | > 50 | N#Cc1cccc(CN2C(=O)C3(COc4cc5c(cc43)OCCO5)c3ccccc32)c1 (stereo not drawn) [Example 4.94, 3-[(2′-oxo-2,3-dihydrospiro[furo[2,3-g][1,4]benzodioxine-8,3′-indol]-1′(2′H)-yl)methyl]benzonitrile]
1 to 100 | 161 to 163 | > 50 | COc1cc(CN2C(=O)C3(COc4cc5c(cc43)OCCO5)c3ccccc32)ccc1F (stereo not drawn) [Example 4.95, 1-(4-fluoro-3-methoxybenzyl)-2,3-dihydrospiro[furo[2,3-g][1,4]benzodioxine-8,3′-indol]-2′(1′H)-one]
1 to 100 | 69 to 72 | > 50 | N#Cc1ccc(CN2C(=O)C3(COc4cc5c(cc43)OCCO5)c3ccccc32)cc1 (stereo not drawn) [Example 4.96, 4-[(2′-oxo-2,3-dihydrospiro[furo[2,3-g][1,4]benzodioxine-8,3′-indol]-1′(2′H)-yl)methyl]benzonitrile]
1 to 100 | 209 to 212 | < 50 | O=C1N(Cc2ccc(-c3ccno3)cc2)c2ccccc2C12COc1cc3c(cc12)OCCO3 (stereo not drawn) [Example 4.97, 1′-(4-isoxazol-5-ylbenzyl)-2,3-dihydrospiro[furo[2,3-g][1,4]benzodioxine-8,3′-indol]-2′(1′H)-one]
100 to 1000 | 192 to 194 | < 50 | Cc1noc2cc3c(cc12)C1(CO3)C(=O)N(Cc2ccc(-c3ccno3)cc2)c2ccccc21 (stereo not drawn) [Example 4.99, 1′-(4-isoxazol-5-ylbenzyl)-3-methylspiro[furo[3,2-f][1,2]benzisoxazole-5,3′-indol]-2′(1′H)-one]
1 to 100 | 174 to 176 | < 50 | O=C1N(Cc2ccc(F)cn2)c2ccccc2C12COc1cc3c(cc12)OCCO3 (stereo not drawn) [Example 4.100, 1-[(5-fluoropyridin-2-yl)methyl]-2,3-dihydrospiro[furo[2,3-g][1,4]benzodioxine-8,3′-indol]-2′(1′H)-one]
1 to 100 | 247 to 249 | < 50 | O=C1N(Cc2ncccc2F)c2ccccc2C12COc1cc3c(cc12)OCCO3 (stereo not drawn) [Example 4.101, 1-[(3-fluoropyridin-2-yl)methyl]-2,3-dihydrospiro[furo[2,3-g][1,4]benzodioxine-8,3′-indol]-2′(1′H)-one]
